Experimental data: PubChem BioAssay AID248 (DTP/NCI, 2004)
“And” between values parts separate entries of the source, which are not always exact repeats. Identical values can stand only once. Toxic doses and inconclusive results are not listed. Rule as the data show it: active = T/C of 150% or more; inactive = T/C below 125%.

Test system: L1210 leukemia ip in BDF1 mice, survival T/C
Assay: NCI In Vivo Anticancer Drug Screen. Data for tumor model L1210 Leukemia (intraperitoneal) in B6D2F1 (BDF1) mice
Settings: endpoint: mean survival time, higher = longer survival
How it was run: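 Ratio derived from survival: compound-dosed mice over vehicle-dosed mice, all bearing a transplantable tumor.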

[1] = dose: 150.0 mg/kg/injection, schedule: Q01DX001 (ip), vehicle: saline
[2] = dose: 100.0 mg/kg/injection, schedule: Q01DX009 (ip), vehicle: Klucel (hydroxypropylcellulose) (HPC)
[3] = dose: 100.0 mg/kg/injection, schedule: Q04DX003 (ip), vehicle: Klucel (hydroxypropylcellulose) (HPC)
[4] = dose: 200.0 mg/kg/injection, schedule: Q01DX009 (ip), vehicle: Klucel (hydroxypropylcellulose) (HPC)
[5] = dose: 200.0 mg/kg/injection, schedule: Q04DX003 (ip), vehicle: Klucel (hydroxypropylcellulose) (HPC)
[6] = dose: 400.0 mg/kg/injection, schedule: Q01DX009 (ip), vehicle: Klucel (hydroxypropylcellulose) (HPC)
[7] = dose: 400.0 mg/kg/injection, schedule: Q04DX003 (ip), vehicle: Klucel (hydroxypropylcellulose) (HPC)
[8] = dose: 100.0 mg/kg/injection, schedule: Q01DX009 (ip), vehicle: saline with Tween-80
[9] = dose: 100.0 mg/kg/injection, schedule: Q04DX003 (ip), vehicle: saline
[10] = dose: 200.0 mg/kg/injection, schedule: Q01DX009 (ip), vehicle: saline with Tween-80
[11] = dose: 200.0 mg/kg/injection, schedule: Q04DX003 (ip), vehicle: saline
[12] = dose: 400.0 mg/kg/injection, schedule: Q04DX003 (ip), vehicle: saline
[13] = dose: 25.0 mg/kg/injection, schedule: Q01DX009 (ip), vehicle: saline with Tween-80
[14] = dose: 50.0 mg/kg/injection, schedule: Q01DX009 (ip), vehicle: saline with Tween-80
[15] = dose: 100.0 mg/kg/injection, schedule: Q01DX001 (ip), vehicle: saline
[16] = dose: 200.0 mg/kg/injection, schedule: Q01DX001 (ip), vehicle: saline
[17] = dose: 400.0 mg/kg/injection, schedule: Q01DX001 (ip), vehicle: saline

Measured: T/C

CCCCCCOP(=O)(N1CC1)N1CC1
inactive: dose: 0.62 mg/kg/injection, schedule: Q01DX001 (ip), vehicle: saline 102 % of control | dose: 1.25 mg/kg/injection, schedule: Q01DX001 (ip), vehicle: saline 100 % of control | dose: 2.5 mg/kg/injection, schedule: Q01DX001 (ip), vehicle: saline 103 % of control | dose: 5.0 mg/kg/injection, schedule: Q01DX001 (ip), vehicle: saline 103 % of control
active: dose: 10.0 mg/kg/injection, schedule: Q01DX001 (ip), vehicle: saline 152 % of control | dose: 20.0 mg/kg/injection, schedule: Q01DX001 (ip), vehicle: saline 201 % of control | dose: 40.0 mg/kg/injection, schedule: Q01DX001 (ip), vehicle: saline 287 % of control | dose: 75.0 mg/kg/injection, schedule: Q01DX001 (ip), vehicle: saline 267 % of control | [1] 247 % of control

O=NN(CCCl)C(=O)Nc1cc2c3ccccc3ccc2c2ccccc12
inactive: dose: 177.0 mg/kg/injection, schedule: Q01DX009 (ip), vehicle: carboxymethylcellulose (CMC) 123 % of control

N#C/C(=C\c1cccn1Cc1cc2ccccc2c2ccccc12)C(N)=O
inactive: dose: 25.0 mg/kg/injection, schedule: Q04DX002 (ip), vehicle: saline 105 % of control | dose: 50.0 mg/kg/injection, schedule: Q04DX002 (ip), vehicle: saline 108 % of control | dose: 100.0 mg/kg/injection, schedule: Q04DX002 (ip), vehicle: saline 119 % of control

NC(N)=N/N=C/c1c2ccccc2cc2ccccc12
inactive: dose: 15.0 mg/kg/injection, schedule: Q01DX Z (ip), vehicle: carboxymethylcellulose (CMC) 101 % of control | dose: 30.0 mg/kg/injection, schedule: Q01DX Z (ip), vehicle: carboxymethylcellulose (CMC) 101 % of control | dose: 240.0 mg/kg/injection, schedule: Q01DX Z (oral), vehicle: carboxymethylcellulose (CMC) 104 % of control

Cc1c([N+](=O)[O-])cc(C(C)(C)C)c(OS(C)(=O)=O)c1[N+](=O)[O-]
inactive: dose: 25.0 mg/kg/injection, schedule: Q04DX002 (ip), vehicle: saline with Tween-80 92 % of control | dose: 50.0 mg/kg/injection, schedule: Q04DX002 (ip), vehicle: saline with Tween-80 99 % of control | dose: 100.0 mg/kg/injection, schedule: Q04DX002 (ip), vehicle: saline with Tween-80 96 % of control

COC(=O)CCC#CC#CCCC(=O)OC
inactive: [2] 97 % of control | [3] 90 % of control | [4] 102 % of control | [5] 95 % of control | [6] 108 % of control | [7] 90 % of control

CCOC(=O)C(C)(C(=O)OCC)c1ccccc1
inactive: [8] 97 % of control | [9] 97 % of control | [10] 95 % of control | [11] 97 % of control | dose: 400.0 mg/kg/injection, schedule: Q01DX009 (ip), vehicle: saline with Tween-80 95 % of control | [12] 98 % of control

Cc1cccc(C)c1NC(=O)COc1ccc(Cl)cc1
inactive: [2] 105 % of control | [3] 95 % of control | [4] 86 % of control | [5] 93 % of control | [6] 97 % of control | [7] 91 % of control

CCN(CC)CCCC(C)Nc1c2ccc(Cl)cc2nc2ccc(OC)cc12 (stereo unspecified)
inactive: dose: 7.5 mg/kg/injection, schedule: Q01DX Z (ip), vehicle: saline 93 % of control | dose: 15.0 mg/kg/injection, schedule: Q01DX Z (ip), vehicle: saline 95 % of control | dose: 25.0 mg/kg/injection, schedule: Q01DX015 (ip), vehicle: carboxymethylcellulose (CMC) 102 % of control | dose: 30.0 mg/kg/injection, schedule: Q01DX Z (ip), vehicle: saline 96 % of control | dose: 50.0 mg/kg/injection, schedule: Q01DX015 (ip), vehicle: carboxymethylcellulose (CMC) 102 % of control | dose: 50.0 mg/kg/injection, schedule: Q01DX Z (ip), vehicle: water 104 % of control | dose: 100.0 mg/kg/injection, schedule: Q01DX001 (ip), vehicle: carboxymethylcellulose (CMC) 96 % of control | dose: 100.0 mg/kg/injection, schedule: Q01DX015 (ip), vehicle: carboxymethylcellulose (CMC) 102 % of control | dose: 200.0 mg/kg/injection, schedule: Q01DX001 (ip), vehicle: carboxymethylcellulose (CMC) 116 % of control

CN1CCC(S)(S)CC1
inactive: dose: 12.5 mg/kg/injection, schedule: Q01DX009 (ip), vehicle: saline with Tween-80 105 % of control | dose: 12.5 mg/kg/injection, schedule: Q04DX003 (ip), vehicle: saline with Tween-80 96 % of control | [13] 93 % of control | dose: 25.0 mg/kg/injection, schedule: Q04DX003 (ip), vehicle: saline with Tween-80 102 % of control | [14] 104 % of control | dose: 50.0 mg/kg/injection, schedule: Q04DX003 (ip), vehicle: saline with Tween-80 106 % of control

O=C(Nc1cc(Cl)ccc1Cl)c1ccccc1Cl
inactive: [2] 94 % of control | [3] 102 % of control | [4] 87 % of control | [5] 97 % of control | [6] 92 % of control | [7] 91 % of control

O=C(Nc1ccc(Cl)cc1)Nc1ncccn1
inactive: dose: 100.0 mg/kg/injection, schedule: Q04DX002 (ip), vehicle: Klucel (hydroxypropylcellulose) (HPC) 96 % of control | dose: 200.0 mg/kg/injection, schedule: Q04DX002 (ip), vehicle: Klucel (hydroxypropylcellulose) (HPC) 93 % of control | dose: 400.0 mg/kg/injection, schedule: Q04DX002 (ip), vehicle: Klucel (hydroxypropylcellulose) (HPC) 96 % of control

CC(C)(CS(C)(=O)=O)C(=O)O
inactive: [15] 98 % of control | dose: 100.0 mg/kg/injection, schedule: Q01DX009 (ip), vehicle: saline 89 % of control | [16] 98 % of control | [17] 101 % of control | dose: 400.0 mg/kg/injection, schedule: Q01DX009 (ip), vehicle: saline 91 % of control

O=C(NC(Cc1ccccc1)C(=O)N1CCOCC1)c1ccccc1 (stereo unspecified)
inactive: [15] 91 % of control | [16] 98 % of control | [17] 89 % of control

CC(=O)Nc1nc(Cl)c([N+](=O)[O-])c(SCc2ccccc2)n1
inactive: [13] 90 % of control | [14] 93 % of control and 97 % of control | [8] 101 % of control and 104 % of control | dose: 100.0 mg/kg/injection, schedule: Q04DX003 (ip), vehicle: saline with Tween-80 87 % of control | dose: 200.0 mg/kg/injection, schedule: Q04DX003 (ip), vehicle: saline with Tween-80 98 % of control

COc1cc(=O)n2cc(C)ccc2n1
inactive: dose: 50.0 mg/kg/injection, schedule: Q01DX001 (ip), vehicle: saline 98 % of control | [15] 101 % of control | [16] 95 % of control | [17] 90 % of control

CC(=O)/C=C/c1ccc([N+](=O)[O-])cc1
inactive: dose: 100.0 mg/kg/injection, schedule: Q04DX003 (ip), vehicle: saline sonified 95 % of control | dose: 200.0 mg/kg/injection, schedule: Q04DX003 (ip), vehicle: saline sonified 89 % of control | dose: 400.0 mg/kg/injection, schedule: Q04DX003 (ip), vehicle: saline sonified 92 % of control

COc1ccc(C(=O)N2CCN(C)CC2)cc1OC
inactive: [15] 101 % of control | [16] 101 % of control | [17] 97 % of control

Nc1ccccc1C(=O)NO
inactive: [15] 98 % of control | [16] 97 % of control | [17] 97 % of control

CN1CN(C2CCCCC2)CSC1=S
inactive: dose: 100.0 mg/kg/injection, schedule: Q01DX001 (ip), vehicle: acetone 95 % of control | dose: 100.0 mg/kg/injection, schedule: Q04DX003 (ip), vehicle: acetone 101 % of control | [9] 101 % of control | dose: 200.0 mg/kg/injection, schedule: Q01DX001 (ip), vehicle: acetone 92 % of control | dose: 200.0 mg/kg/injection, schedule: Q04DX003 (ip), vehicle: acetone 106 % of control | [11] 102 % of control | dose: 400.0 mg/kg/injection, schedule: Q01DX001 (ip), vehicle: acetone 100 % of control | dose: 400.0 mg/kg/injection, schedule: Q04DX003 (ip), vehicle: acetone 94 % of control | [12] 98 % of control

COC(=O)CCCN1CC2C=C(C#N)C1C(C(=O)OC)C2 (stereo unspecified)
inactive: [1] 93 % of control | dose: 300.0 mg/kg/injection, schedule: Q01DX001 (ip), vehicle: saline 93 % of control

O=C(CNC(=O)Nc1ccc(Cl)c(Cl)c1)N/N=C/c1ccccc1F
inactive: [14] 93 % of control | [8] 89 % of control | [10] 89 % of control
